US20250281502A1, “NEW DRUG APPLICATION” (Centre National de la Recherche Scientifique, priority 2021, published 2025)

What was measured:
XG2 cell line = assay: Melphalan IC50 with or without Pyridostatin, XG2 cell line; format: cell-based; details: Homo sapiens
[1] = test system: Human Myeloma Cell Lines (HMCLs); assay: CellTiter-Glo cell viability, IC50 in human myeloma cell lines; format: cell-based
Experimental: JJN3, OPM2, RPM18266, LP1, AMO1, SKMM2 human myeloma cell lines (HMCLs) were obtained from ATCC (Molshein, France) and were cultured in RPMI 1640 medium, supplemented with 10% fetal calf serum (Biochrom, Berlin, Germany) and 2 mM L-Glutamine. The interleukin-6-dependent cell lines XG1, XG2, XG6, XG7, XG12, XG19, XG20, XG21 were obtained as previously described and maintained in the presence of 2 ng/mL recombinant IL-6 (R&D Systems, Oxon, UK), 10% fetal calf serum and 2 mM L-Glutamine.
Cells in culture were stained using trypan blue solution (Sigma-Aldrich, St. Louis MO, USA) and viable cells were counted under a light microscope. The CellTiter-Glo Luminescent Viability assay (Promega, Leiden, The Netherlands) was used to measure the effect on cell viability according to manufacturer's instructions, and the 50% inhibition (IC50) was determined using GraphPad Prism software (http://www.graphpad.com/scientific-software/prism/).

XG7-RH = assay: Western blot of DNA damage response in XG7 with inducible RNase H; format: cell-based, human; details: XG7-RH with doxycycline, 5 h or 24 h (FIG. 7)
Experimental: FIGS. 7A and 7B represent Western blots. Doxy stands for doxycycline. PDS stands for Pyridostatin (concentration in μM). XG7 cell line was transduced with a doxycycline-inducible lentivirus containing RNase H gene (XG7-RH). XG7-RH was cultured with or without doxycycline in absence or presence of Pyridostatin during 5 h or 24 h. Western blot membranes were stained with anti-Phospho-Chk2, anti-Phospho-P53, anti-P53, anti-PARP, anti-myc (FIG. 7A) and anti-p21, anti-p16, anti-p27 and anti-gH2AX (FIG. 7B). Tubulin protein level was used as control.
Western Blot Analysis Western blot analysis was performed as previously described (Viziteu, E. et al., Leukemia 31, 2104-2113, 2017). Tubulin was used as loading control. All antibodies used were purchased from Cell Signaling, except for p21, p27, Myc, and phospho-Histone H2A.X. Myc antibody was obtained from Santa Cruz biotechnology (Texas, USA), phospho-Histone H2A.X antibody from Merck Millipore (Sigma-Aldrich), and p27 antibody was from Sigma-Aldrich.

[2] = test system: normal cells from the bone marrow microenvironment; assay: Primary patient samples, co-cultured normal bone marrow cells by flow cytometry; format: cell-based, human; details: five MM patients (FIG. 6C)
Experimental: FIG. 6A represents the IC50 of Pyridostatin (nM) for […]: a is OPM2; b is XG12; c is XG21; d is XG19; e is RPM18266; f is LP1; g is XG6; h is JJN3; I is XG2; j is XG7; k: L363; I is XG1; m is AMO1; n is SKMM2 and o is XG20. IC50 of Pyridostatin +/−SD are representative of 3 independent experiments. NA: not reached. FIG. 6B represents the Pyridostatin toxicity on bone marrow cells (x-axis is the Pyridostatin concentration in μM; y-axis is the cell count in percentage of the control (0 μM of Pyridostatin)). The toxicity of Pyridostatin was assessed on primary bone marrow cells from one MM patient (dark grey bars), co-cultured with normal bone marrow microenvironment (light grey). The toxicity on MM cells and normal bone marrow cells was assessed by flow cytometry using CD138 and CD28 marker cells. FIG. 6C represents the Pyridostatin toxicity on bone marrow cells (x-axis is the Pyridostatin concentration in μM; y-axis is the cell count in percentage of the control (0 μM of Pyridostatin)). The toxicity of Pyridostatin was assessed on primary bone marrow cells from five MM patient (black bars) and co-cultured with normal bone marrow microenvironment (grey bars). The toxicity on MM cells and normal bone marrow cells was assessed by flow cytometry using CD138 and CD28 marker cells. Data are mean values of five independent experiments. […]

MM cell = MM cell growth, apoptosis and cell cycle after Pyridostatin; format: cell-based, human
[3] = test system: primary MM cells from patients; assay: Primary patient samples, viable CD138+ MM cells by flow cytometry; format: cell-based, human; details: co-cultured with bone marrow microenvironment (FIG. 6B, 6C)
XG2-MeIR cell line = assay: Melphalan response with or without Pyridostatin, Melphalan-resistant XG2 cell line; format: cell-based, human; details: 4 days (FIGS. 14 and 15)

N[C@@H](Cc1ccc(N(CCCl)CCCl)cc1)C(=O)O [Melphalan]
IC50 (XG2 cell line; 96 h, black bars, Melphalan and Pyridostatin at 1.25 μM for 4 days, first value printed for XG2 (FIG. 15)): 1.49 µM
IC50 (XG2 cell line; 96 h, black bars, Melphalan and Pyridostatin at 1.25 μM for 4 days, second value printed for XG2 (FIG. 15)): 0.633 µM
IC50 (XG2 cell line; grey bars, Melphalan alone, first value printed for XG2 (FIG. 15)): 0.633 µM
IC50 (XG2 cell line; grey bars, Melphalan alone, second value printed for XG2 (FIG. 15)): 0.35 µM

COc1cc(OC)c2c(=O)[nH]c(-c3cc(C)c(OCCO)c(C)c3)nc2c1 [RVX-208, 2-[4-(2-hydroxyethoxy)-3,5-dimethylphenyl]-5,7-dimethoxy-4(3H)-quinazolinone]
sensitivity of HMCLs with high TRC score compared to low TRC score [1]: significantly more sensitive

NCCOc1cc(C(=O)Nc2cc(OCCN)c3ccccc3n2)nc(C(=O)Nc2cc(OCCN)c3ccccc3n2)c1 [Pyridostatin]
DNA damage response after PDS treatment on inducible RNase H expression (phosphorylation of Chk2, p53; p21 and p16 expression) (XG7-RH): significant reduction of DNA damage response
toxicity on co-cultured normal cells [2]: without any significant toxicity
resistance to PDS ([1]; 5 cell lines (FIG. 6A)): higher resistance
IC50 ([1]; Homo sapiens, 10 HMCLs (FIG. 6A), read-out: IC50 of Pyridostatin): ≤ 2 µM
MM cell growth (MM cell): inhibits MM cell growth
apoptosis (MM cell): induces apoptosis
cell cycle (MM cell): significant accumulation in G2/M phase
toxicity on primary MM cells [3]: toxicity
re-sensitization of resistant cells to Melphalan (XG2-MeIR cell line): re-sensitize the resistant cells (XG2-MeIR) to Melphalan

CCNC(=O)C[C@@H]1N=C(c2ccc(Cl)cc2)c2cc(OC)ccc2-n2c(C)nnc21 [I-BET-762, (4S)-6-(4-Chlorophenyl)-N-ethyl-8-methoxy-1-methyl-4H-[1,2,4]triazolo[4,3-a][1,4]benzodiazepine-4-acetamide]
sensitivity of HMCLs with high TRC score compared to low TRC score [1]: significantly more sensitive
